According to the supplement of paper PMC10307832:

How the values were obtained:
Test in all cases: relative viability (nuclei count vs DMSO), 5 days (fraction); higher = more cells survive
BMX-IN-1 + OSI-027 = compound: C=CC(=O)Nc1cc(-n2c(=O)ccc3cnc4ccc(-c5ccc(NS(C)(=O)=O)cc5)cc4c32)ccc1C [BMX-IN-1] + COc1cccc2cc(-c3nc([C@H]4CC[C@H](C(=O)O)CC4)n4ncnc(N)c34)[nH]c12 [OSI-027] (partner 0.5 µM)
Summary of the method: (§1)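 Cells from lung cancer lines were seeded into 1536-well plates and, one day later, dosed by pin tool. Treatments were either a single drug or a fixed dose of an anchor drug with five library-drug doses (not always all listed) in √10 steps. After 5 days, nuclei were stained in a one-step fixation (final 0.05% Triton X-100, 1% formaldehyde, 1 ug/ml Hoechst) and counted on 4× images, and relative viability is the treated-to-vehicle nuclei ratio, as the median of duplicate plates.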

BMX-IN-1 + Luminespib = compound: C=CC(=O)Nc1cc(-n2c(=O)ccc3cnc4ccc(-c5ccc(NS(C)(=O)=O)cc5)cc4c32)ccc1C [BMX-IN-1] + CCNC(=O)c1noc(-c2cc(C(C)C)c(O)cc2O)c1-c1ccc(CN2CCOCC2)cc1 [Luminespib] (partner 0.01 µM)
Summary of the method: as §1

Ibrutinib + Tozasertib = compound: C=CC(=O)N1CCC[C@@H](n2nc(-c3ccc(Oc4ccccc4)cc3)c3c(N)ncnc32)C1 [Ibrutinib] + Cc1cc(Nc2cc(N3CCN(C)CC3)nc(Sc3ccc(NC(=O)C4CC4)cc3)n2)n[nH]1 [Tozasertib] (partner 0.1 µM)
Summary of the method: as §1

BMX-IN-1 + Tozasertib = compound: C=CC(=O)Nc1cc(-n2c(=O)ccc3cnc4ccc(-c5ccc(NS(C)(=O)=O)cc5)cc4c32)ccc1C [BMX-IN-1] + Cc1cc(Nc2cc(N3CCN(C)CC3)nc(Sc3ccc(NC(=O)C4CC4)cc3)n2)n[nH]1 [Tozasertib] (partner 0.1 µM)
Summary of the method: as §1

LC-2-ad
relative viability (BMX-IN-1 + OSI-027; first compound 0.02 µM): 0.872 | relative viability (BMX-IN-1 + OSI-027; first compound 0.2 µM): 0.918 | relative viability (BMX-IN-1 + OSI-027; first compound 0.6325 µM): 0.768 | relative viability (BMX-IN-1 + OSI-027; first compound 2 µM): 0.841 | relative viability (BMX-IN-1 + Luminespib; first compound 0.02 µM): 1.16 | relative viability (BMX-IN-1 + Luminespib; first compound 0.2 µM): 1.1 | relative viability (BMX-IN-1 + Luminespib; first compound 0.6325 µM): 0.884 | relative viability (BMX-IN-1 + Luminespib; first compound 2 µM): 0.974 | relative viability (Ibrutinib + Tozasertib; first compound 0.005 µM): 0.497 | relative viability (Ibrutinib + Tozasertib; first compound 0.01581 µM): 0.413 | relative viability (Ibrutinib + Tozasertib; first compound 0.05 µM): 0.388 | relative viability (Ibrutinib + Tozasertib; first compound 0.1581 µM): 0.449 | relative viability (Ibrutinib + Tozasertib; first compound 0.5 µM): 0.382 | relative viability (BMX-IN-1 + Tozasertib; first compound 0.02 µM): 0.408 | relative viability (BMX-IN-1 + Tozasertib; first compound 0.2 µM): 0.501 | relative viability (BMX-IN-1 + Tozasertib; first compound 0.6325 µM): 0.394 | relative viability (BMX-IN-1 + Tozasertib; first compound 2 µM): 0.214

LCLC-97TM1
relative viability (BMX-IN-1 + OSI-027; first compound 0.02 µM): 0.585 | relative viability (BMX-IN-1 + OSI-027; first compound 0.2 µM): 0.66 | relative viability (BMX-IN-1 + OSI-027; first compound 0.6325 µM): 0.542 | relative viability (BMX-IN-1 + OSI-027; first compound 2 µM): 0.628 | relative viability (BMX-IN-1 + Luminespib; first compound 0.02 µM): 0.969 | relative viability (BMX-IN-1 + Luminespib; first compound 0.2 µM): 0.856 | relative viability (BMX-IN-1 + Luminespib; first compound 0.6325 µM): 0.817 | relative viability (BMX-IN-1 + Luminespib; first compound 2 µM): 0.823 | relative viability (Ibrutinib + Tozasertib; first compound 0.005 µM): 0.601 | relative viability (Ibrutinib + Tozasertib; first compound 0.01581 µM): 0.426 | relative viability (Ibrutinib + Tozasertib; first compound 0.05 µM): 0.216 | relative viability (Ibrutinib + Tozasertib; first compound 0.1581 µM): 0.241 | relative viability (Ibrutinib + Tozasertib; first compound 0.5 µM): 0.224 | relative viability (BMX-IN-1 + Tozasertib; first compound 0.02 µM): 0.203 | relative viability (BMX-IN-1 + Tozasertib; first compound 0.2 µM): 0.274 | relative viability (BMX-IN-1 + Tozasertib; first compound 0.6325 µM): 0.289 | relative viability (BMX-IN-1 + Tozasertib; first compound 2 µM): 0.203

LCLC-103H
relative viability (BMX-IN-1 + OSI-027; first compound 0.02 µM): 0.493 | relative viability (BMX-IN-1 + OSI-027; first compound 0.2 µM): 0.55 | relative viability (BMX-IN-1 + OSI-027; first compound 0.6325 µM): 0.527 | relative viability (BMX-IN-1 + OSI-027; first compound 2 µM): 0.522 | relative viability (BMX-IN-1 + Luminespib; first compound 0.02 µM): 1.1 | relative viability (BMX-IN-1 + Luminespib; first compound 0.2 µM): 0.933 | relative viability (BMX-IN-1 + Luminespib; first compound 0.6325 µM): 0.956 | relative viability (BMX-IN-1 + Luminespib; first compound 2 µM): 0.882 | relative viability (Ibrutinib + Tozasertib; first compound 0.005 µM): 0.493 | relative viability (Ibrutinib + Tozasertib; first compound 0.01581 µM): 0.495 | relative viability (Ibrutinib + Tozasertib; first compound 0.05 µM): 0.531 | relative viability (Ibrutinib + Tozasertib; first compound 0.1581 µM): 0.527 | relative viability (Ibrutinib + Tozasertib; first compound 0.5 µM): 0.439 | relative viability (BMX-IN-1 + Tozasertib; first compound 0.02 µM): 0.605 | relative viability (BMX-IN-1 + Tozasertib; first compound 0.2 µM): 0.494 | relative viability (BMX-IN-1 + Tozasertib; first compound 0.6325 µM): 0.559 | relative viability (BMX-IN-1 + Tozasertib; first compound 2 µM): 0.485

LK-2
relative viability (BMX-IN-1 + OSI-027; first compound 0.02 µM): 0.219 | relative viability (BMX-IN-1 + OSI-027; first compound 0.2 µM): 0.188 | relative viability (BMX-IN-1 + OSI-027; first compound 0.6325 µM): 0.187 | relative viability (BMX-IN-1 + OSI-027; first compound 2 µM): 0.242 | relative viability (BMX-IN-1 + Luminespib; first compound 0.02 µM): 0.197 | relative viability (BMX-IN-1 + Luminespib; first compound 0.2 µM): 0.219 | relative viability (BMX-IN-1 + Luminespib; first compound 0.6325 µM): 0.176 | relative viability (BMX-IN-1 + Luminespib; first compound 2 µM): 0.207 | relative viability (Ibrutinib + Tozasertib; first compound 0.01581 µM): 0.165 | relative viability (Ibrutinib + Tozasertib; first compound 0.05 µM): 0.185 | relative viability (Ibrutinib + Tozasertib; first compound 0.1581 µM): 0.168 | relative viability (Ibrutinib + Tozasertib; first compound 0.5 µM): 0.157 | relative viability (BMX-IN-1 + Tozasertib; first compound 0.02 µM): 0.223 | relative viability (BMX-IN-1 + Tozasertib; first compound 0.2 µM): 0.173 | relative viability (BMX-IN-1 + Tozasertib; first compound 0.6325 µM): 0.161 | relative viability (BMX-IN-1 + Tozasertib; first compound 2 µM): 0.184

LOU-NH91
relative viability (BMX-IN-1 + OSI-027; first compound 0.02 µM): 0.717 | relative viability (BMX-IN-1 + OSI-027; first compound 0.6325 µM): 0.772 | relative viability (BMX-IN-1 + OSI-027; first compound 2 µM): 0.679 | relative viability (BMX-IN-1 + Luminespib; first compound 0.02 µM): 0.3 | relative viability (BMX-IN-1 + Luminespib; first compound 0.6325 µM): 0.363 | relative viability (BMX-IN-1 + Luminespib; first compound 2 µM): 0.315 | relative viability (Ibrutinib + Tozasertib; first compound 0.005 µM): 0.699 | relative viability (Ibrutinib + Tozasertib; first compound 0.01581 µM): 0.582 | relative viability (Ibrutinib + Tozasertib; first compound 0.05 µM): 0.581 | relative viability (Ibrutinib + Tozasertib; first compound 0.1581 µM): 0.648 | relative viability (Ibrutinib + Tozasertib; first compound 0.5 µM): 0.488 | relative viability (BMX-IN-1 + Tozasertib; first compound 0.02 µM): 0.829 | relative viability (BMX-IN-1 + Tozasertib; first compound 0.6325 µM): 0.715 | relative viability (BMX-IN-1 + Tozasertib; first compound 2 µM): 0.656

LU99A
relative viability (BMX-IN-1 + OSI-027; first compound 0.02 µM): 0.321 | relative viability (BMX-IN-1 + OSI-027; first compound 0.2 µM): 0.289 | relative viability (BMX-IN-1 + OSI-027; first compound 0.6325 µM): 0.329 | relative viability (BMX-IN-1 + OSI-027; first compound 2 µM): 0.298 | relative viability (BMX-IN-1 + Luminespib; first compound 0.02 µM): 0.216 | relative viability (BMX-IN-1 + Luminespib; first compound 0.2 µM): 0.181 | relative viability (BMX-IN-1 + Luminespib; first compound 0.6325 µM): 0.227 | relative viability (BMX-IN-1 + Luminespib; first compound 2 µM): 0.258 | relative viability (Ibrutinib + Tozasertib; first compound 0.005 µM): 0.264 | relative viability (Ibrutinib + Tozasertib; first compound 0.01581 µM): 0.279 | relative viability (Ibrutinib + Tozasertib; first compound 0.05 µM): 0.285 | relative viability (Ibrutinib + Tozasertib; first compound 0.1581 µM): 0.258 | relative viability (Ibrutinib + Tozasertib; first compound 0.5 µM): 0.278 | relative viability (BMX-IN-1 + Tozasertib; first compound 0.02 µM): 0.275 | relative viability (BMX-IN-1 + Tozasertib; first compound 0.2 µM): 0.294 | relative viability (BMX-IN-1 + Tozasertib; first compound 0.6325 µM): 0.275 | relative viability (BMX-IN-1 + Tozasertib; first compound 2 µM): 0.293

LXF-289
relative viability (BMX-IN-1 + OSI-027; first compound 0.02 µM): 0.878 | relative viability (BMX-IN-1 + OSI-027; first compound 0.2 µM): 0.766 | relative viability (BMX-IN-1 + OSI-027; first compound 0.6325 µM): 1.1 | relative viability (BMX-IN-1 + OSI-027; first compound 2 µM): 0.838 | relative viability (BMX-IN-1 + Luminespib; first compound 0.02 µM): 0.816 | relative viability (BMX-IN-1 + Luminespib; first compound 0.2 µM): 0.809 | relative viability (BMX-IN-1 + Luminespib; first compound 0.6325 µM): 0.825 | relative viability (BMX-IN-1 + Luminespib; first compound 2 µM): 0.671 | relative viability (Ibrutinib + Tozasertib; first compound 0.005 µM): 0.22 | relative viability (Ibrutinib + Tozasertib; first compound 0.01581 µM): 0.192 | relative viability (Ibrutinib + Tozasertib; first compound 0.05 µM): 0.164 | relative viability (Ibrutinib + Tozasertib; first compound 0.1581 µM): 0.248 | relative viability (Ibrutinib + Tozasertib; first compound 0.5 µM): 0.197 | relative viability (BMX-IN-1 + Tozasertib; first compound 0.02 µM): 0.212 | relative viability (BMX-IN-1 + Tozasertib; first compound 0.2 µM): 0.197 | relative viability (BMX-IN-1 + Tozasertib; first compound 0.6325 µM): 0.187 | relative viability (BMX-IN-1 + Tozasertib; first compound 2 µM): 0.146

NCI-H23
relative viability (BMX-IN-1 + OSI-027; first compound 0.02 µM): 0.549 | relative viability (BMX-IN-1 + OSI-027; first compound 0.2 µM): 0.728 | relative viability (BMX-IN-1 + OSI-027; first compound 0.6325 µM): 0.581 | relative viability (BMX-IN-1 + OSI-027; first compound 2 µM): 0.713 | relative viability (BMX-IN-1 + Luminespib; first compound 0.02 µM): 0.209 | relative viability (BMX-IN-1 + Luminespib; first compound 0.2 µM): 0.203 | relative viability (BMX-IN-1 + Luminespib; first compound 0.6325 µM): 0.22 | relative viability (BMX-IN-1 + Luminespib; first compound 2 µM): 0.208 | relative viability (Ibrutinib + Tozasertib; first compound 0.005 µM): 0.34 | relative viability (Ibrutinib + Tozasertib; first compound 0.01581 µM): 0.361 | relative viability (Ibrutinib + Tozasertib; first compound 0.05 µM): 0.455 | relative viability (Ibrutinib + Tozasertib; first compound 0.1581 µM): 0.335 | relative viability (Ibrutinib + Tozasertib; first compound 0.5 µM): 0.382 | relative viability (BMX-IN-1 + Tozasertib; first compound 0.02 µM): 0.331 | relative viability (BMX-IN-1 + Tozasertib; first compound 0.2 µM): 0.367 | relative viability (BMX-IN-1 + Tozasertib; first compound 0.6325 µM): 0.586 | relative viability (BMX-IN-1 + Tozasertib; first compound 2 µM): 0.34

NCI-H322M
relative viability (BMX-IN-1 + OSI-027; first compound 0.02 µM): 0.581 | relative viability (BMX-IN-1 + OSI-027; first compound 0.2 µM): 0.534 | relative viability (BMX-IN-1 + OSI-027; first compound 0.6325 µM): 0.618 | relative viability (BMX-IN-1 + OSI-027; first compound 2 µM): 0.502 | relative viability (BMX-IN-1 + Luminespib; first compound 0.02 µM): 0.847 | relative viability (BMX-IN-1 + Luminespib; first compound 0.2 µM): 0.807 | relative viability (BMX-IN-1 + Luminespib; first compound 0.6325 µM): 0.756 | relative viability (BMX-IN-1 + Luminespib; first compound 2 µM): 0.883 | relative viability (Ibrutinib + Tozasertib; first compound 0.005 µM): 0.426 | relative viability (Ibrutinib + Tozasertib; first compound 0.01581 µM): 0.459 | relative viability (Ibrutinib + Tozasertib; first compound 0.05 µM): 0.415 | relative viability (Ibrutinib + Tozasertib; first compound 0.1581 µM): 0.474 | relative viability (Ibrutinib + Tozasertib; first compound 0.5 µM): 0.354 | relative viability (BMX-IN-1 + Tozasertib; first compound 0.02 µM): 0.514 | relative viability (BMX-IN-1 + Tozasertib; first compound 0.2 µM): 0.548 | relative viability (BMX-IN-1 + Tozasertib; first compound 0.6325 µM): 0.475 | relative viability (BMX-IN-1 + Tozasertib; first compound 2 µM): 0.401
